# Measurements published in patent US11685724B2, “Synthetic intermediates for novel cannabinoids and cannabinoid acids and their derivatives” (priority 2018, dated 2023).
# Where two headings read alike, the source gives them in different places.
# Legend:
# CB2 = CB2 (Homo sapiens, UniProt P34972); details: background statement with literature references; cited from earlier work
# TRPV1 channels = experiment: Calcium assay of TRPV1 channel activity in HEK-TRPV1 cells; type: cell-based; details: Fluo-4 loaded, 1 mM external calcium chloride, 0-20 seconds baseline, compound added at 20 seconds, FIGS. 1A-1D
# Description: Molecular Pharmacology, 2016, volume 90, pages 300-308) HEK 293 cells with TRPV1 channels have been used as model systems (P. Geppetti and M. Trevisani, Activation and sensitisation of the vanilloid receptor: role in gastrointestinal inflammation and function, British Journal of Pharmacology, 2004, volume 141, pages 1313-1320);
# HEK TRexTRPV1 cultured in DMEM, 10% Fetal Bovine Serum, 2 mM L-glutamine, 10 microgramg/m1 Blasticidin (Calbiochem, San Diego Calif.), […] Zeocin (InvivoGen, San Diego Calif.), followed by inducing indicated transgene expression using 1 microgram/ml Tetracycline for 16-24 hrs. Comparisons made to untransfected HEK cells or HEKTRexTRPV1 with or without induction.
# […] Cells transferred to 96-well plates at 50,000 cells/well and stimulated as indicated. Calcium signals acquired using a Flexstation 3 (Molecular Devices, Sunnydale, USA). Data are analyzed according to the methods in I. Diaz-Franulic, J. Caceres-Molina, R. V. Sepulveda, F. Gonzalez-Nilo, R. Latorre, Structure-Driven Pharmacology of Transient Receptor Potential Channel Vanilloid 1, Molecular Pharmacology, 2016, volume 90, pages 300-8. […]
# CB1 receptors = CB1 receptors (Homo sapiens, UniProt P21554); details: cited from earlier work
# CB1 receptors, sequence (P21554 whole entry): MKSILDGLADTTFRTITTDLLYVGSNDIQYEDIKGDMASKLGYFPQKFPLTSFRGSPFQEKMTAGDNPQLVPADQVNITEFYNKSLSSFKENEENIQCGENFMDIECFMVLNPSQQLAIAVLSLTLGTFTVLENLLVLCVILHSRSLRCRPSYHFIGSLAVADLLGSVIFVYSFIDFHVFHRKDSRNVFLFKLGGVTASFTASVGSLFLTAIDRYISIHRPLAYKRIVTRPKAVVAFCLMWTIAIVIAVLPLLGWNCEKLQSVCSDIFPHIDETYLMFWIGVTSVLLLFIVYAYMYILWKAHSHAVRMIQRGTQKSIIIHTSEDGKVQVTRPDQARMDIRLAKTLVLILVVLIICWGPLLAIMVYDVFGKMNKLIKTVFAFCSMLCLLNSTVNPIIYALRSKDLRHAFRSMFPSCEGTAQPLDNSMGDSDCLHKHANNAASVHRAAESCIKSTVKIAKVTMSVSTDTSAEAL
# [1] = background statement with literature references
# CB2, sequence (P34972 whole entry, species assumed): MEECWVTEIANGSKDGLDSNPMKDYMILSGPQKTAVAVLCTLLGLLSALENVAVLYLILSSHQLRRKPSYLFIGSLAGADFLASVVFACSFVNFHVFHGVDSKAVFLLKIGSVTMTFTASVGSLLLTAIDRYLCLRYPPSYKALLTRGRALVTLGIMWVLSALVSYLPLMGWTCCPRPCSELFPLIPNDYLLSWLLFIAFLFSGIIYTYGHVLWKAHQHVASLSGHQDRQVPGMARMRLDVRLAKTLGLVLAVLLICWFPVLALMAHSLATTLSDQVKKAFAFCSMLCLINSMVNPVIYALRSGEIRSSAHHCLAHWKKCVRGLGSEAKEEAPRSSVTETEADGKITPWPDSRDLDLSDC
SMILES,CB2 receptor modulation (kind of action) (CB2),"biological finger print and dose response on TRPV1 channels (calcium signal), synthesized vs reference standard cannabidiol (TRPV1 channels)",CB1 receptor modulation (kind of action) (CB1 receptors; [1]),CB1 receptor modulation (kind of action) (CB1 receptors)
"C=C(C)[C@@H]1CCC(C)=C[C@H]1c1c(O)cc(CCCCC)cc1O [cannabidiol (11, CBD), Cannabidiol]",do not interact significantly,same “biological finger print” and dose response,do not interact significantly,–
"C=C(C)[C@@H]1CCC(C)=C[C@H]1c1c(O)cc(CCC)cc1O [cannabidivarin (12), cannabidivarin]",do not interact significantly,–,do not interact significantly,–
"CCCCCc1cc(O)c2c(c1)OC(C)(C)c1ccc(C)cc1-2 [cannabinol (10), cannabinol]",modest agonists,–,–,weak agonist
"CCCc1cc(O)c2c(c1)OC(C)(C)[C@@H]1CCC(C)=C[C@@H]21 [tetrahydrocannabivarin (9), tetrahydrocannabivarin]",modest agonists,–,weak antagonist,–
